From PubChem BioAssay (NCI)
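Growth conditions: 96-well plates. Treatment: test compound, 48 hours, 5 concentrations. Analysis: linear interpolation between bracketing concentrations; unreached endpoints set to highest concentration. At the GI50, growth is halved. TGI denotes the concentration required for complete inhibition of growth.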 Active and inactive are the calls of the source. Rule as the data show it: active = GI50 below about 0.43 µM; inactive = the rest.

How the values were obtained:
Experiment in all cases: growth of human tumour cells (NCI), 48 h
[1] = tested on: UACC-257 melanoma
[2] = tested on: XF 498 CNS
[3] = tested on: RXF 393 renal
[4] = tested on: CAKI-1 renal
[5] = tested on: CCRF-CEM leukemia
[6] = tested on: EKVX NSCLC
[7] = tested on: DMS 114 small cell lung
[8] = tested on: HCT-116 colon
[9] = tested on: SK-MEL-5 melanoma
[10] = tested on: M14 melanoma
[11] = tested on: MOLT-4 leukemia
[12] = tested on: KM12 colon
[13] = tested on: DMS 273 small cell lung
[14] = tested on: SF-539 CNS
[15] = tested on: SF-268 CNS
[16] = tested on: KM20L2 colon
[17] = tested on: SF-295 CNS
[18] = tested on: LXFL 529 NSCLC
[19] = tested on: HT29 colon
[20] = tested on: OVCAR-3 ovarian
[21] = tested on: RPMI-8226 leukemia
[22] = tested on: HCT-15 colon
[23] = tested on: HOP-18 NSCLC
[24] = tested on: A549 NSCLC
[25] = tested on: SNB-75 CNS
[26] = tested on: NCI-H460 lung
[27] = tested on: U251 CNS
[28] = tested on: COLO 205 colon
[29] = tested on: M19-MEL melanoma
[30] = tested on: HCC-2998 colon
[31] = tested on: HOP-62 NSCLC
[32] = tested on: SK-OV-3 ovarian
[33] = tested on: SNB-78 CNS
[34] = tested on: LOX IMVI melanoma
[35] = tested on: NCI-H522 lung
[36] = tested on: UACC-62 melanoma
[37] = tested on: OVCAR-4 ovarian
[38] = tested on: SK-MEL-2 melanoma
[39] = tested on: HOP-92 NSCLC
[40] = tested on: SNB-19 CNS
[41] = tested on: HL-60(TB) leukemia
[42] = tested on: IGROV1 ovarian
[43] = tested on: OVCAR-8 ovarian
[44] = tested on: UO-31 renal
[45] = tested on: ACHN renal
[46] = tested on: SK-MEL-28 melanoma
[47] = tested on: A498 renal
[48] = tested on: OVCAR-5 ovarian
[49] = tested on: NCI-H226 lung
[50] = tested on: 786-0 renal
[51] = tested on: MALME-3M melanoma
[52] = tested on: SW-620 colon
[53] = tested on: K-562 leukemia
[54] = tested on: SN12C renal
[55] = tested on: NCI-H23 lung
[56] = tested on: TK-10 renal
[57] = tested on: DLD-1 colon
[58] = tested on: RXF-631 renal
[59] = tested on: SR leukemia

O=[N+]([O-])c1ccc2c(c1)[O][Sn][O]2
GI50 [1]: 40.5 µg/mL | TGI [1]: > 150 µg/mL | outcome [2]: inactive | GI50 [3]: 8.22 µg/mL | TGI [3]: > 150 µg/mL | GI50 [4]: 104 µg/mL | TGI [4]: > 150 µg/mL | GI50 [5]: 17.6 µg/mL | TGI [5]: > 150 µg/mL | GI50 [6]: > 150 µg/mL | TGI [6]: > 150 µg/mL | GI50 [7]: 66.2 µg/mL | TGI [7]: > 150 µg/mL | GI50 [8]: 45.3 µg/mL | TGI [8]: > 150 µg/mL | GI50 [9]: 75.8 µg/mL | TGI [9]: > 150 µg/mL | GI50 [10]: 23.8 µg/mL | TGI [10]: 78.2 µg/mL | GI50 [11]: 33 µg/mL | TGI [11]: > 150 µg/mL | GI50 [12]: 37.6 µg/mL | TGI [12]: > 150 µg/mL | GI50 [13]: 18.8 µg/mL | TGI [13]: > 150 µg/mL | GI50 [14]: 50.1 µg/mL | TGI [14]: > 150 µg/mL | GI50 [15]: 47.6 µg/mL | TGI [15]: > 150 µg/mL | outcome [16]: inactive | GI50 [17]: > 150 µg/mL | TGI [17]: > 150 µg/mL | outcome [18]: inactive | GI50 [19]: 86 µg/mL | TGI [19]: > 150 µg/mL | GI50 [20]: 48.1 µg/mL | TGI [20]: > 150 µg/mL | GI50 [21]: 17.8 µg/mL | TGI [21]: > 150 µg/mL | GI50 [22]: 16.8 µg/mL | TGI [22]: > 150 µg/mL | outcome [23]: inactive | GI50 [24]: > 150 µg/mL | TGI [24]: > 150 µg/mL | GI50 [25]: > 150 µg/mL | TGI [25]: > 150 µg/mL | GI50 [26]: 69.5 µg/mL | TGI [26]: > 150 µg/mL | GI50 [27]: > 150 µg/mL | TGI [27]: > 150 µg/mL | GI50 [28]: 62.5 µg/mL | TGI [28]: > 150 µg/mL | GI50 [29]: 36.9 µg/mL | TGI [29]: > 150 µg/mL | GI50 [30]: > 150 µg/mL | TGI [30]: > 150 µg/mL | GI50 [31]: > 150 µg/mL | TGI [31]: > 150 µg/mL | GI50 [32]: > 150 µg/mL | TGI [32]: > 150 µg/mL | GI50 [33]: 124 µg/mL | TGI [33]: > 150 µg/mL | GI50 [34]: 66.5 µg/mL | TGI [34]: > 150 µg/mL | GI50 [35]: 4.23 µg/mL | TGI [35]: 69.5 µg/mL | GI50 [36]: 8.32 µg/mL | TGI [36]: > 150 µg/mL | GI50 [37]: > 150 µg/mL | TGI [37]: > 150 µg/mL | GI50 [38]: > 150 µg/mL | TGI [38]: > 150 µg/mL | GI50 [39]: 45.3 µg/mL | TGI [39]: 88.3 µg/mL | GI50 [40]: 55.2 µg/mL | TGI [40]: > 150 µg/mL | GI50 [41]: 36.5 µg/mL | TGI [41]: > 150 µg/mL | GI50 [42]: 115 µg/mL | TGI [42]: > 150 µg/mL | GI50 [43]: 65.7 µg/mL | TGI [43]: > 150 µg/mL | GI50 [44]: 125 µg/mL | TGI [44]: > 150 µg/mL | GI50 [45]: 139 µg/mL | TGI [45]: > 150 µg/mL | GI50 [46]: 29.4 µg/mL | TGI [46]: > 150 µg/mL | GI50 [47]: > 150 µg/mL | TGI [47]: > 150 µg/mL | GI50 [48]: > 150 µg/mL | TGI [48]: > 150 µg/mL | GI50 [49]: 29 µg/mL | TGI [49]: > 150 µg/mL | GI50 [50]: 139 µg/mL | TGI [50]: > 150 µg/mL | GI50 [51]: 149 µg/mL | TGI [51]: > 150 µg/mL | GI50 [52]: 114 µg/mL | TGI [52]: > 150 µg/mL | GI50 [53]: 40.2 µg/mL | TGI [53]: > 150 µg/mL | GI50 [54]: > 150 µg/mL | TGI [54]: > 150 µg/mL | GI50 [55]: 15.3 µg/mL | TGI [55]: 143 µg/mL | GI50 [56]: > 150 µg/mL | TGI [56]: > 150 µg/mL

CCOC(=O)c1cc(/C=C/C(C)=C/C(=O)OC)n(C)c1C
TGI [1]: > 100 µM | TGI [2]: > 100 µM | TGI [4]: > 100 µM | TGI [5]: > 100 µM | TGI [57]: > 100 µM | TGI [6]: > 100 µM | TGI [9]: > 100 µM | TGI [10]: > 100 µM | TGI [11]: > 100 µM | TGI [12]: > 100 µM | TGI [13]: > 100 µM | TGI [14]: > 100 µM | TGI [15]: > 100 µM | TGI [16]: > 100 µM | TGI [17]: > 100 µM | TGI [18]: > 100 µM | TGI [19]: > 100 µM | TGI [20]: > 100 µM | TGI [21]: > 100 µM | TGI [22]: > 100 µM | TGI [58]: > 100 µM | TGI [24]: > 100 µM | TGI [26]: > 100 µM | TGI [27]: > 100 µM | TGI [28]: > 100 µM | TGI [29]: > 100 µM | TGI [30]: > 100 µM | TGI [31]: > 100 µM | TGI [32]: > 100 µM | TGI [33]: > 100 µM | TGI [34]: > 100 µM | TGI [35]: > 100 µM | TGI [36]: > 100 µM | TGI [37]: > 100 µM | TGI [39]: > 100 µM | TGI [40]: > 100 µM | TGI [41]: > 100 µM | TGI [42]: > 100 µM | TGI [43]: > 100 µM | TGI [44]: > 100 µM | TGI [45]: > 100 µM | TGI [47]: > 100 µM | TGI [48]: > 100 µM | TGI [49]: > 100 µM | TGI [50]: > 100 µM | TGI [51]: > 100 µM | TGI [52]: > 100 µM | TGI [53]: > 100 µM | TGI [54]: > 100 µM | TGI [55]: > 100 µM | TGI [56]: > 100 µM

Cc1ccc2c(c1)C(c1cccc3ccccc13)OC2=O (stereo not drawn)
TGI [1]: > 100 µM | TGI [3]: 80.4 µM | TGI [4]: > 100 µM | TGI [5]: > 100 µM | TGI [57]: > 100 µM | TGI [6]: > 100 µM | TGI [7]: > 100 µM | TGI [8]: > 100 µM | TGI [9]: > 100 µM | TGI [10]: > 100 µM | TGI [11]: > 100 µM | TGI [12]: > 100 µM | TGI [13]: > 100 µM | TGI [15]: > 100 µM | TGI [16]: > 100 µM | TGI [17]: > 100 µM | TGI [18]: > 100 µM | TGI [19]: > 100 µM | TGI [20]: > 100 µM | TGI [22]: > 100 µM | TGI [23]: > 100 µM | TGI [58]: > 100 µM | TGI [24]: > 100 µM | TGI [25]: > 100 µM | TGI [26]: > 100 µM | TGI [27]: > 100 µM | TGI [28]: > 100 µM | TGI [29]: > 100 µM | TGI [30]: > 100 µM | TGI [31]: 81.7 µM | TGI [32]: > 100 µM | TGI [34]: > 100 µM | TGI [35]: > 100 µM | TGI [36]: > 100 µM | TGI [37]: > 100 µM | TGI [38]: > 100 µM | TGI [40]: > 100 µM | TGI [41]: > 100 µM | TGI [42]: > 100 µM | TGI [43]: > 100 µM | TGI [59]: > 100 µM | TGI [44]: > 100 µM | TGI [45]: > 100 µM | TGI [46]: > 100 µM | TGI [47]: 83.9 µM | TGI [48]: > 100 µM | TGI [49]: > 100 µM | TGI [50]: > 100 µM | TGI [51]: > 100 µM | TGI [52]: > 100 µM | TGI [53]: > 100 µM | TGI [54]: > 100 µM | TGI [55]: > 100 µM | TGI [56]: > 100 µM
